According to US20090081721A1, “HIGH-THROUGHPUT CELL ASSAYS” (The Regents of the University of California, priority 2007, published 2009):
In brackets after ≈: the same amount, converted by molar mass. Like-named read-outs stand apart in the source and are kept apart here.

Assays:
[1] = system: E. coli; test: Isothermal titrative calorimetry (ITC) susceptibility test, power output and CFUs recovered; assay type: cell-based; details: for Exponential increase in energy after injection (ITC thermogram): 10^4 wild-type antibiotic susceptible E. coli, 1 ml Mueller-Hinton broth, injection at 7,200 sec, 14,400 sec total
Procedure: (§1) In general, the susceptibility of bacterial strains can be tested by loading the chamber of an isothermal titrative calorimeter with a single bacterial strain, holding a constant temperature of 37° C. for a set time period (e.g., 14,400 seconds (4 hours)) and monitoring the power produced by the bacteria before and after application of an antimicrobial. Following the loading of the calorimeter, there is an initial energy spike within the first 1500 seconds (25 minutes) that is a normal equilibration period for a calorimeter. After the instrument and sample have equilibrated, the energy produced by a normally growing and dividing culture increases in an exponential manner, similar to a log phase growth curve of a microbial culture based on optical density (OD). Like the exponential increase in OD observed for a growing culture, the exponential increase in energy produced also seems to be associated with an increased number of cells in the medium because the number of cells retrieved from the calorimeter following a susceptibility test increases by about 2-3 orders of magnitude. (See Table 1).
In one aspect, the method is practiced by loading into a Isothermal Titrative Calorimetry (ITC) various drugs or antibiotics to which the cells such as microorganisms may be susceptible. The antibiotics can be loaded at different rates and at different growth densities. The difference in power produced by the sample co-cultured with the antibiotics are then measured and compared to the same untreated culture or culture treated with water. The data is differentiated to find the maximum growth rate (dP/dt), and integrated to determine the total microjoules produced by the culture after an antimicrobial was injected. If the organism is resistant to the antibiotic, the maximum growth rate is similar to that when the co-cultured with water. If the microorganism is sensitive to the antibiotic, maximum dP/dt and total microjoule (μJ) for the antimicrobial treated sample are much lower than the untreated sample or the sample treated with water. […]

[2] = system: K. pneumoniae; test: as above; assay type: cell-based, Klebsiella pneumoniae; details: for Number of microbes (CFUs) in calorimetry chamber after incubation: 10^5 loaded, 4-hour monitoring; for Max dP/dt (100 save) after injection / Total μJ produced after injection: ciprofloxacin susceptible, ampicillin resistant strain
Procedure: as §1
(§2) In one aspect, the method is practiced by loading into a Isothermal Titrative Calorimetry (ITC) various drugs or antibiotics to which the cells such as microorganisms may be susceptible. The antibiotics can be loaded at different rates and at different growth densities. The difference in power produced by the sample co-cultured with the antibiotics are then measured and compared to the same untreated culture or culture treated with water. The data is differentiated to find the maximum growth rate (dP/dt), and integrated to determine the total microjoules produced by the culture after an antimicrobial was injected. If the organism is resistant to the antibiotic, the maximum growth rate is similar to that when the co-cultured with water. If the microorganism is sensitive to the antibiotic, maximum dP/dt and total microjoule (μJ) for the antimicrobial treated sample are much lower than the untreated sample or the sample treated with water. See FIGS. 6 through 9 for exemplary ITC-generated growth data.
(§3) The susceptibility of bacterial strains was tested by loading the chamber of an Isothermal Titrative Calorimeter (Calorimetry Sciences Corporation (CSC) and others are commercially available, see microcal.com/index, last accessed on Dec. 28, 2007) with a single bacterial strain, holding a constant temperature of 37° C. for 14,400 seconds (4 hours) and monitoring the power produced by the bacteria before and after application of an antimicrobial. Following the loading of the calorimeter, there is an initial energy spike within the first 1500 seconds (25 minutes) that is a normal equilibration period for a calorimeter. After the instrument and sample have equilibrated, the energy produced by a normally growing and dividing culture increases in an exponential manner, similar to a log phase growth curve of a microbial culture based on optical density (OD). Like the exponential increase in OD observed for a growing culture, the exponential increase in energy produced also seems to be associated with an increased number of cells in the medium because the number of cells retrieved from the calorimeter following a susceptibility test increases by 2-3 orders of magnitude. (See Table 1). A second spike in heat transfer being produced/absorbed in the calorimeter is associated with injection of either water or an antimicrobial into the injection chamber. This spike can be attributed to the enthalpy associated with dilution of the injected solution into the growth medium. […] If a strain is susceptible, a rise in power is not observed. If the strain is resistant to the agent or antimicrobial, the exponential rise in power is observed.
(§4) […]. H2O, ampicillin, or ciprofloxacin was injected into the chamber at 7,200 sec (2 hours). […]

[3] = system: P. mirabilis; test: as above; assay type: cell-based, Proteus mirabilis; details: for Exponential increase in power (μW) after injection (ITC thermogram): injection at 7,200 sec, 14,400 sec total; for Number of microbes (CFUs) in calorimetry chamber after incubation: 10^5 loaded, 4-hour monitoring; for Max dP/dt (100 save) after injection / Total μJ produced after injection: ciprofloxacin resistant, ampicillin resistant strain
Procedure: as §1, §2, §3
. H2O, ampicillin, or ciprofloxacin was injected into the chamber at 7,200 sec (2 hours). […]

[4] = system: A. baumanii; test: as above; assay type: cell-based, Acinetobacter baumanii; details: for Exponential increase in power (μW) after injection (ITC thermogram): 10^5 A. baumanii, 1 ml Mueller-Hinton broth, injection at 7,200 sec, 14,400 sec total; for Number of microbes (CFUs) in calorimetry chamber after incubation: 10^5 loaded, 4-hour monitoring; for Max dP/dt (100 save) after injection / Total μJ produced after injection: ciprofloxacin resistant, ampicillin resistant strain
Procedure: as §1, §2, §3, §4

[5] = system: K. pneumoniae; test: Minimum inhibitory concentration (traditional susceptibility testing); assay type: cell-based; details: Klebsiella pneumoniae
Procedure: (§5) Minimum inhibitory concentrations are determined by inoculating several cultures of bacteria in separate tubes or wells of broth that typically contain a 2-fold serial dilution of an antimicrobial.

[6] = system: P. mirabilis; test: as above; assay type: cell-based; details: Proteus mirabilis
Procedure: as §5

[7] = system: A. baumanii; test: as above; assay type: cell-based; details: Acinetobacter baumannii; wild-type ampicillin and ciprofloxacin resistant A. baumanii strain used in ITC
Procedure: as §5

[8] = 10^5 P. mirabilis, 1 ml Mueller-Hinton broth

CC1(C)S[C@@H]2[C@H](NC(=O)[C@H](N)c3ccccc3)C(=O)N2[C@H]1C(=O)O [Ampicillin, ampicillin]
Exponential increase in energy after injection (ITC thermogram) [1]: exponential increase in energy only continued in the sample injected with H2O | Exponential increase in power (μW) after injection (ITC thermogram) ([2]; 10^5 K. pneumoniae, 1 ml Mueller-Hinton broth, injection at 7,200 sec, 14,400 sec total): exponential increase in power continued in the sample injected with H2O and ampicillin | Number of microbes (CFUs) in calorimetry chamber after incubation ([2]; Ampicillin 40 μg/ml): 2.0 × 10^7 CFUs | Max dP/dt (100 save) after injection ([2]; Ampicillin 40 μg/ml): 0.029 | Total μJ produced after injection ([2]; Ampicillin 40 μg/ml): 139,108 μJ | Exponential increase in power (μW) after injection (ITC thermogram) [3, 8]: exponential increase in power continued in all three samples | Number of microbes (CFUs) in calorimetry chamber after incubation ([3]; Ampicillin 40 μg/ml): 9.0 × 10^5 CFUs | Max dP/dt (100 save) after injection ([3]; Ampicillin 40 μg/ml): 0.027 | Total μJ produced after injection ([3]; Ampicillin 40 μg/ml): 161,844 μJ | Exponential increase in power (μW) after injection (ITC thermogram) [4]: exponential increase in power continued in all three samples | Number of microbes (CFUs) in calorimetry chamber after incubation ([4]; Ampicillin 40 μg/ml): 3.0 × 10^7 CFUs | Max dP/dt (100 save) after injection ([4]; Ampicillin 40 μg/ml): 0.026 | Total μJ produced after injection ([4]; Ampicillin 40 μg/ml): 91,240 μJ | MIC [5]: > 1020 µg/mL | MIC [6]: > 1020 µg/mL

O=C(O)c1cn(C2CC2)c2cc(N3CCNCC3)c(F)cc2c1=O [Ciprofloxacin, ciprofloxacin]
Exponential increase in energy after injection (ITC thermogram) [1]: exponential increase in energy only continued in the sample injected with H2O | Number of microbes (CFUs) in calorimetry chamber after incubation ([1]; Ciprofloxacin 2 μg/ml, 10^4 loaded, 4-hour monitoring): 1.7 × 10^7 CFUs | Number of microbes (CFUs) in calorimetry chamber after incubation ([2]; Ciprofloxacin 2 μg/ml): 3.6 × 10^7 CFUs | Max dP/dt (100 save) after injection ([2]; Ciprofloxacin 2 μg/ml): 0.003 | Total μJ produced after injection ([2]; Ciprofloxacin 2 μg/ml): 24,676 μJ | Rate of exponential increase in power after injection, compared with ampicillin or H2O ([3]; 10^5 P. mirabilis, 1 ml Mueller-Hinton broth, injection at 7,200 sec): lower than for ampicillin or H2O | Exponential increase in power (μW) after injection (ITC thermogram) [3, 8]: exponential increase in power continued in all three samples | Number of microbes (CFUs) in calorimetry chamber after incubation ([3]; Ciprofloxacin 2 μg/ml): 4.1 × 10^6 CFUs | Max dP/dt (100 save) after injection ([3]; Ciprofloxacin 2 μg/ml): 0.012 | Total μJ produced after injection ([3]; Ciprofloxacin 2 μg/ml): 79,439 μJ | Exponential increase in power (μW) after injection (ITC thermogram) [4]: exponential increase in power continued in all three samples | Number of microbes (CFUs) in calorimetry chamber after incubation ([4]; Ciprofloxacin 2 μg/ml): 2.1 × 10^7 CFUs | Max dP/dt (100 save) after injection ([4]; Ciprofloxacin 2 μg/ml): 0.027 | Total μJ produced after injection ([4]; Ciprofloxacin 2 μg/ml): 100,846 μJ | MIC [7]: > 32 µg/mL | MIC ([6]; ampicillin resistant, weakly ciprofloxacin resistant P. mirabilis strain used in ITC, read-out: MIC): 4 µg/mL (≈ 12.1 µM)

CC(C)(O/N=C(\C(=O)N[C@@H]1C(=O)N2C(C(=O)[O-])=C(C[n+]3ccccc3)CS[C@H]12)c1csc(N)n1)C(=O)O [ceftazidime]
MIC [6]: 128 µg/mL (≈ 234 µM)
